pKi: −log10 of the molar value.
Experiment: Binding affinity against Sigma receptor type 1 was determined by the displacement of [3H]pentazocine radioligand

Q: With `C[C@@H]1CN(CCCn2c3ccc(Br)cc3c3cc(Br)ccc32)C[C@@H](C)N1` [3,6-Dibromo-9-[3-(3,5-dimethyl-piperazin-1-yl)-propyl]-9H-carbazole] as the molecule, how does the pKi read?
A: 5.35

Q: With `C[C@@H]1CN(CCCn2c3ccccc3c3ccccc32)C[C@@H](C)N1C` [9-[3-(3,4,5-Trimethyl-piperazin-1-yl)-propyl]-9H-carbazole] as the molecule, how does the pKi read?
A: 6.26

Q: With `C[C@@H]1CN(CCCn2c3ccccc3c3cc([N+](=O)[O-])ccc32)C[C@@H](C)N1` [9-[3-(3,5-Dimethyl-piperazin-1-yl)-propyl]-3-nitro-9H-carbazole] as the molecule, how does the pKi read?
A: 6.22

Q: With `C[C@@H]1CN(CCCn2c3ccccc3c3cc(N)ccc32)C[C@@H](C)N1` [9-[3-(3,5-Dimethyl-piperazin-1-yl)-propyl]-9H-carbazol-3-ylamine] as the molecule, how does the pKi read?
A: 5.24

Q: With `C[C@@H]1CN(CCCn2c3ccccc3c3ccccc32)C[C@@H](C)N1CCCc1ccccc1` [9-{3-[3,5-Dimethyl-4-(3-phenyl-propyl)-piperazin-1-yl]-propyl}-9H-carbazole] as the molecule, how does the pKi read?
A: 6.98

Q: With `C[C@@H]1CN(CCCN(c2ccc(F)cc2)c2ccc(F)cc2)C[C@@H](C)N1CCc1ccc(Cl)c(Cl)c1` [(3-{(3R,5R)-4-[2-(3,4-Dichloro-phenyl)-ethyl]-3,5-dimethyl-piperazin-1-yl}-propyl)-bis-(4-fluoro-phenyl)-amine] as the molecule, how does the pKi read?
A: 7.49

Q: With `C[C@@H]1CN(CCCN(c2ccccc2)c2ccccc2)C[C@@H](C)N1CCc1ccc(Cl)c(Cl)c1` [(3-{(3R,5R)-4-[2-(3,4-Dichloro-phenyl)-ethyl]-3,5-dimethyl-piperazin-1-yl}-propyl)-diphenyl-amine] as the molecule, how does the pKi read?
A: 7.53

Q: With `Fc1ccc(N(CCCN2CCNCC2)c2ccc(F)cc2)cc1` [Bis-(4-fluoro-phenyl)-(3-piperazin-1-yl-propyl)-amine] as the molecule, how does the pKi read?
A: 5.86

Q: With `Fc1ccc(N(CCCN2CCN(CCCc3ccccc3)CC2)c2ccc(F)cc2)cc1` [Bis-(4-fluoro-phenyl)-{3-[4-(3-phenyl-propyl)-piperazin-1-yl]-propyl}-amine] as the molecule, how does the pKi read?
A: 7.18

Q: With `Fc1ccc(N(CCCN2CCN(Cc3ccccc3)CC2)c2ccc(F)cc2)cc1` [N-(3-(4-benzylpiperazin-1-yl)propyl)-4-fluoro-N-(4-fluorophenyl)benzenamine] as the molecule, how does the pKi read?
A: 7.88

Q: With `CCN(CC)CCOCCOC(=O)C1(c2ccccc2)CCCC1` [SMR000326757] as the molecule, how does the pKi read?
A: 7.71

Q: With `C[C@@H]1CN(CCCN(c2ccc(F)cc2)c2ccc(F)cc2)C[C@@H](C)N1` [[3-((3R,5R)-3,5-Dimethyl-piperazin-1-yl)-propyl]-bis-(4-fluoro-phenyl)-amine] as the molecule, how does the pKi read?
A: 6.91

Q: With `C[C@@H]1CN(CCCN(c2ccccc2)c2ccccc2)C[C@@H](C)N1` [[3-((3R,5R)-3,5-Dimethyl-piperazin-1-yl)-propyl]-diphenyl-amine] as the molecule, how does the pKi read?
A: 6.86

Q: With `C[C@@H]1CN(CCCN(c2ccc(F)cc2)c2ccc(F)cc2)C[C@@H](C)N1CCCc1ccccc1` [{3-[3,5-Dimethyl-4-(3-phenyl-propyl)-piperazin-1-yl]-propyl}-bis-(4-fluoro-phenyl)-amine] as the molecule, how does the pKi read?
A: 7.95

Q: With `C[C@@H]1CN(CCCN(c2ccccc2)c2ccccc2)C[C@@H](C)N1CCCc1ccccc1` [{3-[3,5-Dimethyl-4-(3-phenyl-propyl)-piperazin-1-yl]-propyl}-diphenyl-amine] as the molecule, how does the pKi read?
A: 7.01

— BindingDB's records for doi:10.1021/jm030008u (Nida-Irp, 2003)
